Source: EP3860956B1, “PROCESS FOR MANUFACTURING N-ALKYL-DIPHOSPHONATE AMINO AMINOACIDS” (Italmatch Chemicals S.p.A., priority 2018, dated 2020)
Like-named read-outs stand apart in the source and are kept apart here.

Tests used:
[1] = Barium sulphate scale inhibition; settings: minimum phosphonate concentration to inhibit 100% BaSO4 scale; 50/50 North Sea water/Formation water, pH 6, 22 hours at 90 °C, ICP-MS
Description: To evaluate the efficiency of both scale inhibitors according to the present invention and comparative ones in preventing barium scale inhibition in oil field scaling conditions, the present test is carried out determining the amount of BaSO4 that has precipitated after 22 hours at 90 °C, in a 50/50 mixture of synthetic North Sea water
The amount of soluble Ba ions is determined by inductively coupled plasma mass spectrometry (ICP-MS).
The present test is carried out as follows: • synthetic North Sea and Formation waters are prepared at pH 6. These water solutions are preheated at 90 °C before starting the test. An acetic acid/sodium acetate buffer is prepared and added to the North Sea water in order to give the required pH; • - 15, 30, 50, 70 and 100 ppm of scale inhibitor active phosphonic acid is added to a glass bottle; • - 50 ml of North Sea water is added to this glass bottle while stirring. 50 ml of Formation water is then added to this glass bottle; • - one blank solution is prepared, by mixing 50 ml of North Sea water with 50 ml of Formation water; • - sample bottles were put in an oven for 22 hours at 90 °C; • - after 22 hours, 3 ml of each test solution was taken from the surface, was filtered through a 0.45 µm Millipore filter and added to a stabilizing solution.
The stabilized samples were analyzed by ICP-MS for Ba.
Ba scale inhibition stands for the minimum phosphonate concentration to inhibit 100% BaSO4 scale.
Note that the 100% phosphonate efficiencies for BaSO4 scale inhibition are calculated as follows: % Scale inhibition = (V1−V0/V2−V0) × 100 [formula] wherein V0 = ppm Ba found in the blank solution; V1 = ppm Ba found in the solution with the scale inhibitor; and V2 = ppm Ba present in the Formation water.

[2] = after 28 days; 2.0 ppm of pure active solid or 5.5 ppm as commercial product; previous study; cited from earlier work
[3] = Thermal stability test in synthetic North Sea water; assay type: physicochemical; settings: 1% active acid in synthetic North Sea water, pH 5.5, 140 °C, one week, 31P NMR; percentage by weight
Description: The test is carried out as follows: an aqueous solution containing 20% of scale inhibitor active acid at pH 5.5 (solution 1) is prepared. After that, synthetic North Sea water having a pH of 5.5 (solution 2) is prepared. A 1% scale inhibitor active acid sample is prepared by mixing 1 g of solution 1 with 19 g of solution 2. The so prepared sample is placed in a closed pressure resistant tube and kept in an oven at minimum 140 °C for one week. Finally, after one week, the sample is analyzed by means of 31P NMR spectroscopy.

[4] = Brine and sea water compatibility test (Ca tolerance); assay type: physicochemical; settings: synthetic North Sea water pH 5.5, 90 °C, 24 hours
Description: Scale inhibitors, especially if they have anionic moieties, may form complexes and precipitate with hardness salts, for example calcium, before they can fulfill their dispersing and chelating functions. Compatibility tests are carried out to check if complexation happens or not. If compatibility is poor, not only precipitation occurs, but also overall scale formation becomes faster.

[5] = Calcium carbonate scale inhibition; settings: 2 ppm active phosphonic acid; 240 ppm Ca2+, 732 ppm HCO3-, pH 8.7 buffer, 50 °C, 22 hours
Description: To evaluate the efficiency of both scale inhibitors according to the present invention and comparative ones in preventing calcium carbonate scale in industrial water treatment conditions, the present test is carried out determining the amount of CaCO3 that has precipitated after 22 hours at 50 °C in a 50/50 mixture of cationic and anionic waters with the test phosphonates at three different concentrations. The amount of soluble Ca ions is analyzed by titration. […]
Put the sample bottles in an oven for 22 hours at 50 °C. […] The phosphonate efficiency as CaCO3 scale inhibition is then calculated using the equation: % CaCO3 inhibition = (Cat−Cab) × 100)÷(Cai−Cab) [formula] wherein Cat = calcium remaining in solution of the t sample, where the dilution with HCl has been corrected (Cat=(Caf)×Wta/Wtsam); Cab = Calcium remaining in the blank (i.e. glass bottle wherein no phosphonate was added; under these condition corresponds to minimum of 80% of calcium precipitated as CacO3); and Cai = Total calcium present in a reference t sample (i.e. a sample t in which the hardness brine has simply been diluted with water to get the same final volume).

[6] = Biodegradability, OECD 306 closed bottle marine test; settings: after 14 days; 2 ppm of pure active solid
Description: Biodegradation tests are performed using the standard "closed bottle" marine test methods in accordance with OECD Guidelines 306. OECD306 is a test that measure biodegradation indirectly through the determination of the amount of dissolved oxygen in the medium. The measurement obtained are used to estimate the biodegradability (BOD) during the process.
The measured value of the BOD need to be corrected by dividing either with an experimental value of COD or a ThOD and multiply by 100% to get the biodegradability value.
OECD306 closed bottle test for was performed with a similar test set-up.

Compound | 100% Ba scale inhibition [1] | Biodegradability [2] | Decomposition (%) [3] | Ca Tolerance , visual observation ([4]; 100 ppm active acid) | Ca Tolerance , visual observation ([4]; 1000 ppm active acid) | Ca Tolerance , visual observation ([4]; 10000 ppm active acid) | Ca Tolerance , visual observation ([4]; 50000 ppm active acid) | % CaCO3 inhibition [5] | Biodegradability [6]
O=C(O)CCCCCN(CP(=O)(O)O)CP(=O)(O)O | (no inhibition on Ba) | 77.15% | – | – | – | – | – | – | –
O=P(O)(O)CN(CP(=O)(O)O)CP(=O)(O)O [ATMP, aminotris(methylenephosphonic acid)] | – | – | 12.5% | – | – | – | – | – | –
O=C(O)CCCCCNC(P(=O)(O)O)P(=O)(O)O [Compound of Formula II, 6-((diphosphonomethyl)amino)hexanoic acid] | 50 ppm | – | 3.0% | clear | turbid | turbid | clear | 94% @ 2 ppm | 31.5%
O=P(O)(O)CN(CCN(CP(=O)(O)O)CP(=O)(O)O)CCN(CP(=O)(O)O)CP(=O)(O)O [DTMPA, [[(phosphonomethyl)imino]bis [2,1-ethanediylnitrilobis (methylene)]] tetrakis-phosphonic acid] | 15 ppm | – | 23.6% | clear | turbid | turbid | clear | – | –
CC(O)(P(=O)(O)O)P(=O)(O)O [HEDP, 1-hydroxy ethylidene-1,1-diphosphonic acid] | 30ppm | – | 2.3% | clear | turbid | turbid | clear | – | –
O=P(O)(O)CN(CCO)CP(=O)(O)O [HEMPA, hydroxyethylamino-di(methylene phosphoric acid)] | – | – | 19.0% | – | – | – | – | – | –
